Test results as given in patent US12679832B2, “Compounds and their uses as CD38 inhibitors” (Nanjing Immunophage Biotech Co., Ltd., priority 2021, dated 2026).
Counter-ions that a name gives are not always drawn.

Biological target: T1, hCD38 Enzyme (Homo sapiens, UniProt P28907)
T1 construct: purchased Sino Biological Inc 10818-H08H
T1 sequence (P28907 43-300 limits assumed): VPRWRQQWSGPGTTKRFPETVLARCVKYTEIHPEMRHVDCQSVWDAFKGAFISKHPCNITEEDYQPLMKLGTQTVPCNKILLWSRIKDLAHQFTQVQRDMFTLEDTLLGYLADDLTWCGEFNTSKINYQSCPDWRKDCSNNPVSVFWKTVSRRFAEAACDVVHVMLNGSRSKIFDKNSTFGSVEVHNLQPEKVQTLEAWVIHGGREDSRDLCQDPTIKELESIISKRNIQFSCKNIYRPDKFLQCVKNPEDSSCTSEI
Test: CD38 hydrolase enzymatic assay
Type: biochemical
Conditions: rhCD38, ε-NAD substrate, 25° C., point reading time 20 mins; read-out: hCD38 Enzyme inhibition IC50
Experimental: Also, a blank sample was prepared with 50 μl of sucrose buffer and no test compounds.
The dynamic reading was performed at 25° C. with excitation light of 300 nm and emission light of 410 nm on the enzyme marker by contacting the above-prepared rhCD38 enzyme working fluid and the above-prepared solutions of the test compounds disclosed herein or the solution of the control. The readings were recorded for a total of 1 hour, and the data were analyzed with the point reading time of 20 mins.
Fluorescence was recorded by a microplate reader. Individual excel files containing fluorescence data were exported and the results were plotted against various drug concentrations and analyzed in GraphPad Prism 7.0 for concentration curve generation.

Row | Structure (SMILES) | IC50 [nM]
1 | CO[C@H]1CC[C@H](NC(=O)c2cc(-c3cncs3)ccc2N)CC1 [compound 7, 2-amino-N-((1r,4r)-4-methoxycyclohexyl)-5-(thiazol-5-yl) benzamide] | > 10000
2 | N#Cc1ccc(NC(=O)c2cc(C(F)(F)F)nc(-n3ccnc3)n2)cc1 [compound 165, N-(4-cyanophenyl)-2-(1H-imidazol-1-yl)-6-(trifluoromethyl) pyrimidine-4-carboxamide] | 3
3 | N#Cc1cc(C(=O)Nc2cccc(F)c2)nc(-n2ccnc2)n1 [compound 185, 6-cyano-N-(3-fluorophenyl)-2-(1H-imidazol-1-yl) pyrimidine-4-carboxamide] | 2
4 | CO[C@H]1CC[C@H](NC(=O)c2ccnc(-n3cnc(C(F)(F)F)c3)n2)CC1 [compound 153, N-((1r,4r)-4-methoxycyclohexyl)-2-(4-(trifluoromethyl)-1H-imidazol-1-yl) pyrimidine-4-carboxamide] | > 10000
5 | CC(C)(C)NC(=O)c1cncc(-n2ccnc2)n1 [compound 34, N-(tert-butyl)-6-(1H-imidazol-1-yl)pyrazine-2-carboxamide] | 3910
6 | Cc1ccccc1NC(=O)c1ccnc(-n2ccnc2)n1 [compound 83, 2-(1H-imidazol-1-yl)-N-(o-tolyl)pyrimidine-4-carboxamide] | 132
7 | CO[C@H]1CC[C@H](NC(=O)c2cc(-n3ccnc3)cnn2)CC1 [compound 28, 5-(1H-imidazol-1-yl)-N-((1r,4r)-4-methoxycyclohexyl)pyridazine-3-carboxamide] | 22500
8 | O=C(NC1CCCCC1)c1cc(N2CCCCC2)nc(-n2ccnc2)n1 [compound 144, N-cyclohexyl-2-(1H-imidazol-1-yl)-6-(piperidin-1-yl)pyrimidine-4-carboxamide] | 46
9 | CO[C@H]1CC[C@H](NC(=O)c2cc(C#N)nc(-n3ccnc3)n2)CC1 [compound 106, 6-cyano-2-(1H-imidazol-1-yl)-N-((1r,4r)-4-methoxycyclohexyl)pyrimidine-4-carboxamide] | 18
10 | CO[C@H]1CC[C@H](NC(=O)c2cc(-n3nccn3)cc3cc[nH]c23)CC1 [compound 55, N-((1r,4r)-4-methoxycyclohexyl)-5-(2H-1,2,3-triazol-2-yl)-1H-indole-7-carboxamide] | > 10000
11 | COc1cc(C(=O)N[C@H]2CC[C@H](OC)CC2)nc(-n2ccnc2)n1 [compound 105, 2-(1H-imidazol-1-yl)-6-methoxy-N-((1r,4r)-4-methoxycyclohexyl) pyrimidine-4-carboxamide] | 20
12 | O=C(Nc1cc(F)cc(F)c1)c1cc(C(F)(F)F)nc(-n2ccnc2)n1 [compound 174, N-(3,5-difluorophenyl)-2-(1H-imidazol-1-yl)-6-(trifluoromethyl) pyrimidine-4-carboxamide] | 5.4
13 | CNc1ncc(-n2ccnc2)nc1C(=O)N[C@H]1CC[C@H](OC)CC1 [compound 47, 6-(1H-imidazol-1-yl)-N-((1r,4r)-4-methoxycyclohexyl)-3-(methylamino)pyrazine-2-carboxamide] | 38
14 | CO[C@H]1CC[C@H](NC(=O)c2cc(O)cc(-n3ccnc3)n2)CC1 [compound 5, 4-hydroxy-6-(1H-imidazol-1-yl)-N-((1r,4r)-4-methoxycyclohexyl)picolinamide] | 895
15 | CN(C)CCOc1cc(F)cc(NC(=O)c2cc(C(F)(F)F)nc(-n3ccnc3)n2)c1 [compound 181, N-(3-(2-(dimethylamino)ethoxy)-5-fluorophenyl)-2-(1H-imidazol-1-yl)-6-(trifluoromethyl) pyrimidine-4-carboxamide] | 25.4
16 | CC(=O)N1CCC(NC(=O)c2cncc(-n3ccnc3)n2)CC1 [compound 40, N-(1-acetylpiperidin-4-yl)-6-(1H-imidazol-1-yl)pyrazine-2-carboxamide] | 96
17 | CO[C@H]1CC[C@H](NC(=O)c2ccc(Cl)c(-n3ccnc3)n2)CC1 [compound 77, 5-chloro-6-(1H-imidazol-1-yl)-N-((1r,4r)-4-methoxycyclohexyl) picolinamide] | 2450
18 | CO[C@H]1CC[C@H](NC(=O)c2cccc(-c3nnco3)n2)CC1 [compound 19, N-((1r,4r)-4-methoxycyclohexyl)-6-(1,3,4-oxadiazol-2-yl) picolinamide] | > 10000
19 | O=C(NC1CCCCC1)c1cncc(-n2ccnc2)n1 [compound 30, N-cyclohexyl-6-(1H-imidazol-1-yl)pyrazine-2-carboxamide] | 42
20 | CO[C@H]1CC[C@H](NC(=O)c2nc(-c3cncs3)cnc2N)CC1 [compound 27, 3-amino-N-((1r,4r)-4-methoxycyclohexyl)-6-(thiazol-5-yl)pyrazine-2-carboxamide] | 842
21 | CC(C)NC(=O)c1cncc(-n2ccnc2)n1 [compound 31, 6-(1H-imidazol-1-yl)-N-isopropylpyrazine-2-carboxamide] | 394
22 | O=C(Nc1cncnc1)c1cc(C(F)(F)F)cc(-n2ccnc2)n1 [compound 192, 6-(1H-imidazol-1-yl)-N-(pyrimidin-5-yl)-4-(trifluoromethyl) picolinamide] | 6.1
23 | CO[C@H]1CC[C@H](NC(=O)c2cccc(-c3cncs3)c2F)CC1 [compound 8, 2-fluoro-N-((1r,4r)-4-methoxycyclohexyl)-3-(thiazol-5-yl)benzamide] | > 10000
24 | COCCOc1cc(F)cc(NC(=O)c2cc(C(F)(F)F)nc(-n3ccnc3)n2)c1 [Compound 182] | 9.6
25 | CC(C)(C)NC(=O)c1cc(C(F)(F)F)nc(-n2ccnc2)n1 [compound 141, N-(tert-butyl)-2-(1H-imidazol-1-yl)-6-(trifluoromethyl) pyrimidine-4-carboxamide] | 1030
26 | CO[C@H]1CC[C@H](NC(=O)c2cccc(-c3cncs3)n2)CC1 [compound 12, N-((1r,4r)-4-methoxycyclohexyl)-6-(thiazol-5-yl)picolinamide] | > 10000
27 | CO[C@H]1CC[C@H](NC(=O)c2cc(-c3cncs3)cc3cc[nH]c23)CC1 [compound 29, N-((1r,4r)-4-methoxycyclohexyl)-5-(thiazol-5-yl)-1H-indole-7-carboxamide] | 25

The remaining lines, values ahead:

Row | IC50 [nM] | Structure (SMILES)
28 | > 10000 | Cc1cn(-c2cncc(C(=O)NC3CCCCC3)n2)cn1 [compound 78, N-cyclohexyl-6-(4-methyl-1H-imidazol-1-yl)pyrazine-2-carboxamide]
29 | 1550 | CO[C@H]1CC[C@H](NC(=O)c2nc(-n3ccnc3)ccc2C(F)(F)F)CC1 [compound 151, 6-(1H-imidazol-1-yl)-N-((1r,4r)-4-methoxycyclohexyl)-3-(trifluoromethyl) picolinamide]
30 | 2 | N#Cc1cc(C(=O)Nc2ccc(F)cc2)nc(-n2ccnc2)n1 [compound 187, 6-cyano-N-(4-fluorophenyl)-2-(1H-imidazol-1-yl)pyrimidine-4-carboxamide]
31 | 70 | C[C@H]1CC[C@H](NC(=O)c2cc(N3CCCCC3)nc(-n3ccnc3)n2)CC1 [compound 147, 2-(1H-imidazol-1-yl)-N-((1r,4r)-4-methylcyclohexyl)-6-(piperidin-1-yl)pyrimidine-4-carboxamide]
32 | 8.2 | O=C(Nc1ccc(F)cc1)c1cc(C(F)(F)F)nc(-n2ccnc2)n1 [compound 172, N-(4-fluorophenyl)-2-(1H-imidazol-1-yl)-6-(trifluoromethyl) pyrimidine-4-carboxamide]
33 | > 10000 | O=C(NC1CCNCC1)c1cc(C(F)(F)F)nc(-n2ccnc2)n1 [compound 162, 2-(1H-imidazol-1-yl)-N-(piperidin-4-yl)-6-(trifluoromethyl) pyrimidine-4-carboxamide hydrochloride]
34 | > 10000 | CO[C@H]1CC[C@H](NC(=O)c2ccc(N)c(-n3ccnc3)n2)CC1 [compound 20, 5-amino-6-(1H-imidazol-1-yl)-N-((1r,4r)-4-methoxycyclohexyl)picolinamide]
35 | 2750 | CNc1nc(C(=O)N[C@H]2CC[C@H](OC)CC2)cc(-n2ccnc2)n1 [compound 22, 6-(1H-imidazol-1-yl)-N-((1r,4r)-4-methoxycyclohexyl)-2-(methylamino)pyrimidine-4-carboxamide]
36 | 20 | O=C(Nc1cc(F)cc(N2CCOCC2)c1)c1cc(C(F)(F)F)nc(-n2ccnc2)n1 [compound 176, N-(3-fluoro-5-morpholinophenyl)-2-(1H-imidazol-1-yl)-6-(trifluoromethyl) pyrimidine-4-carboxamide]
37 | 4080 | O=C(NC1CCNCC1)c1cncc(-n2ccnc2)n1 [compound 33, 6-(1H-imidazol-1-yl)-N-(piperidin-4-yl)pyrazine-2-carboxamide]
38 | > 10000 | CO[C@H]1CC[C@H](NC(=O)c2nc(-n3ccnc3)cnc2O)CC1 [compound 67, 3-hydroxy-6-(1H-imidazol-1-yl)-N-((1r,4r)-4-methoxycyclohexyl)pyrazine-2-carboxamide]
39 | 4 | N#Cc1ccc(NC(=O)c2cc(C(F)(F)F)nc(-n3ccnc3)n2)cn1 [compound 164, N-(6-cyanopyridin-3-yl)-2-(1H-imidazol-1-yl)-6-(trifluoromethyl) pyrimidine-4-carboxamide]
40 | 4 | O=C(Nc1cncc(F)c1)c1cc(C(F)(F)F)nc(-n2ccnc2)n1 [compound 167, N-(5-fluoropyridin-3-yl)-2-(1H-imidazol-1-yl)-6-(trifluoromethyl) pyrimidine-4-carboxamide]
